From article PMC2424174, “Suppression of Tumor Growth and Angiogenesis by a Specific Antagonist of the Cell-Surface Expressed Nucleolin” (PLoS ONE, 2008)
Marks after values point to notes of the source that are not given here.

How the values were obtained:
[1] = tested on: MDA-MB-435 tumor-cell xenografts; test: MDA-MB-435 xenograft in nude mice; format: in vivo, human; details: 5-FU 40 mg/kg, intraperitoneal, 3 times/week, 8 weeks, n = 10
Protocol: Figure 8 HB-19 inhibits tumor growth in the nude mice. (A) HB-19 inhibits the growth of MDA-MB-231 tumor-cell xenografts. Cells (2×10^6) were injected subcutaneously into the right flank of female nude mice. Two weeks later, mice with a palpable tumor of approximately 40 mm^3 in volume were randomly separated into three groups (n = 5) and were given peritumoral injections 3 times/week of 0.1 ml PBS alone (Control), HB-19 (5 mg/kg), or Tamoxifen (Tmx) 10 mg/kg) for 6 weeks. (B) HB-19 inhibits the growth of MDA-MB-435 tumor-cell xenografts. Cells (1×10^6) were injected in the mammary fat pad of female nude mice. Two weeks later, mice with a palpable tumor were randomly separated into three groups (n = 10) and were given intraperitoneal injections 3 times/week of 0.1 ml PBS alone (Control), HB-19 (5 mg/kg), or 5-fluouracil (5-FU, 40 mg/kg) for 8 weeks. At the end of each experiment (in A and B), mice were sacrificed and the tumors were excised and weighed. The results are presented as the mean weight ±standard deviation (±S.D.) obtained from the number of mice in each group. (C, D) Inhibition of tumor development in mice treated by intraperitoneal (i.p.) and subcutaneous (s.c.) administration of HB-19. MDA-MB-231 tumor bearing mice in three groups (n = 10) were treated with HB-19 (10 mg/kg) by i.p. or s.c. injections, 3 times/week for 28 days. […]

[2] = Blood cell count in tumor bearing mice; format: in vivo, mouse; details: 3 times/week, 8 weeks
Protocol: (§1) Figure 8 HB-19 inhibits tumor growth in the nude mice. (A) HB-19 inhibits the growth of MDA-MB-231 tumor-cell xenografts. Cells (2×10^6) were injected subcutaneously into the right flank of female nude mice. Two weeks later, mice with a palpable tumor of approximately 40 mm^3 in volume were randomly separated into three groups (n = 5) and were given peritumoral injections 3 times/week of 0.1 ml PBS alone (Control), HB-19 (5 mg/kg), or Tamoxifen (Tmx) 10 mg/kg) for 6 weeks. (B) HB-19 inhibits the growth of MDA-MB-435 tumor-cell xenografts. Cells (1×10^6) were injected in the mammary fat pad of female nude mice. Two weeks later, mice with a palpable tumor were randomly separated into three groups (n = 10) and were given intraperitoneal injections 3 times/week of 0.1 ml PBS alone (Control), HB-19 (5 mg/kg), or 5-fluouracil (5-FU, 40 mg/kg) for 8 weeks. At the end of each experiment (in A and B), mice were sacrificed and the tumors were excised and weighed. The results are presented as the mean weight ±standard deviation (±S.D.) obtained from the number of mice in each group. (C, D) Inhibition of tumor development in mice treated by intraperitoneal (i.p.) and subcutaneous (s.c.) administration of HB-19. MDA-MB-231 tumor bearing mice in three groups (n = 10) were treated with HB-19 (10 mg/kg) by i.p. or s.c. injections, 3 times/week for 28 days. […] Statistical significance: *p<0.05, **p<0.01, ***p<0.001.
Blood samples were collected by cardiac puncture. Hematocrit level, white blood cells and platelets count were determined individually in whole blood anticoagulated with EDTA (1 mM) at room temperature. Blood cell count was analyzed with an automated flow cytometric blood cell counter (Cell-Dyn 3500, Abbott Laboratories, Rungis, France).

[3] = tested on: CD31 endothelial marker in tumors; test: Tumor vascularization, CD31 immunohistochemistry; format: in vivo, mouse; details: CD31 staining; HB-19 5 mg/kg or 5-FU 40 mg/kg, intraperitoneal, 8 weeks; compared to untreated tumors
Protocol: Figure 9 Reduced density of blood vessels in HB-19 treated tumor-bearing mice. Sections of tumors recovered from mice, untreated control and treated with either HB-19 or 5-FU (experiment described in Figure 8B) were stained with antibodies against the CD31 endothelial marker and analyzed by fluorescence microscopy. […] Angiogenesis was quantified by image analysis of CD31-labeled endothelial cells.
Immediately after surgical resection, tumors, were frozen in liquid nitrogen and fixed for 20 min in acetone at 4°C or fixed with 4% PFA for paraffin inclusion. The sections of 8 µm were re-hydrated and saturated in PBS containing 1% BSA and 2% normal goat serum. To visualize tumor endothelial cells, sections were incubated with a Rat anti-mouse CD31 monoclonal antibody (1∶50) in saturation buffer 1 hour at room temperature. After two washes in PBS, sections were incubated for 1 hour at room temperature with biotinylated goat anti-Rat IgG (1∶1000 dilution; Chemicon International Inc., Temecula, CA) in saturation buffer, followed by three washes in PBS and incubation with the avidin-biotinylated-alkaline phosphatase complex (Vector Laboratories). […] Angiogenesis was quantified by Image analysis of CD31-labeled endothelial cells. The EC density in each field was expressed as the ratio of EC area/total area examined ×100 (%). […]

surface nucleolin [4] = test: Complex of HB-19/Btn with surface nucleolin, HUVECs, avidin-agarose and immunoblot; format: binding, human; details: 45 min, 20°C, 0-12 µM HB-19/Btn
Protocol: Figure 3 Specific binding and entry of HB-19 in endothelial cells. (A) HB-19/Btn forms a stable complex with nucleolin expressed on the surface of HUVECs. Cells were incubated (45 min, 20°C) with 0, 1, 2, 4, 8 and 12 µM of HB-19/Btn before preparation of surface/cytoplasmic and nuclear extracts and recovery of surface nucleolin from the surface/cytoplasmic extracts as in Figure 2A. Material extracted from 2×10^7 and 2×10^6 cells was analyzed in panels Surface and Surface/Cytoplasm or Nucleus, respectively. Immunoblotting was with the anti-nucleolin mAb D3. (B) The specific binding of HB-19/Btn to HUVECs. The binding of 1 µM HB-19/Btn was studied at 4 °C by FACScan analysis. To show the specificity of binding, the reaction was carried out in the absence or presence of 50 µM HB-19, F3, or 9Arg peptides. The ordinate gives the relative cell number, whereas the abscissa gives the relative fluorescence intensity. (C) HB-19 entry in HUVECs. Cells were incubated with 5 µM of HB-19/Btn (1 hour, 37°C) before fixation in PFA (for surface binding) or PFA-Triton (for entry), respectively. […]
Cells were passaged in DMEM culture medium containing 10% FCS in 75 cm^2 flasks. […] The purified surface nucleolin was eluted in the electrophoresis sample buffer containing SDS and analyzed by SDS–polyacrylamide gel electrophoresis (PAGE).

surface nucleolin [5] = test: Complex of HB-19/Btn with surface nucleolin, MDA-MB-231 cells, avidin-agarose and immunoblot; format: binding, human; details: 45 min, 20°C, 0-12 µM HB-19/Btn
Protocol: Figure 2 HB-19 binds nucleolin expressed on the surface of tumor cells and causes reduction of cytoplasmic/surface but not nuclear nucleolin. (A) HB-19/Btn forms a stable complex with nucleolin expressed on the surface of cells. MDA-MB-231 cells were incubated (45 min, 20°C) with 0, 1, 2, 4, 8 and 12 µM of HB-19/Btn before preparation of surface/cytoplasmic (i.e., nucleus-free) and nuclear extracts, [28]. Samples of surface nucleolin (purified using surface/cytoplasmic extracts from 2×10^7 cells) and crude surface/cytoplasmic and nuclear extracts (from 2×10^6 cells) were analyzed by immunoblotting for the detection of nucleolin using mAb D3. (B) Specific reduction of surface/cytoplasmic nucleolin in HB-19 treated cells. […] Material from 2×10^6 cells (Untreated or HB-19 treated cells as indicated − or + signs, respectively) was analyzed by immunoblotting for the detection of nucleolin. […] The intensity of nucleolin protein bands quantified by using the NIH image software indicated 75% and 93% reduction of surface/cytoplasmic nucleolin in HB-19 treated cells at 24 and 48 hours, respectively, compared to the corresponding untreated cells. […] MDA-MB-231 cells cultured in the absence (Control Cells) or presence of 10 µM of HB-19 for 48 hours (HB-19 Treated Cells) were fixed in PFA-Triton and processed for fluorescence microscopy. […]

[6] = tested on: cells (surface nucleolin); details: cited from earlier work
Description: The importance of cell-surface nucleolin in cancer biology is highlighted by many studies showing that ligands of nucleolin play critical role in tumorigenesis and angiogenesis, [16]. For example, among surface nucleolin binding growth factors: midkine and PTN can transform cells, whereas on endothelial cells they exert both mitogenic and angiogenic effect. Laminin-1 that induces differentiation of cells binds surface nucleolin, while urokinase that is implicated in mechanisms regulating pericellular proteolysis, cell-surface adhesion, and mitogenesis binds and is co-internaliz ... || Previously, guanosine-rich phosphodiester oligonucleotides (referred to as GROs) and endostatin have been reported to exert antitumoral and antiangiogenic activity, respectively, through interaction with surface nucleolin [21], [41], [42]. […] At 20°C, GRO ...

nucleolin = details: cited from earlier work
Description: HB-19 presents pentavalently the tripeptide Kψ(CH2N)PR in which the reduced peptide bond provides high stability against serum proteases (Figure 1). HB-19 forms a stable complex with the cell-surface expressed nucleolin and is internalized by an active process. This le ... || The interaction of HB-19 with surface nucleolin was investigated using human breast cancer MDA-MB-231 tumor cells and human umbilical vein endothelial cells (HUVECs). […] Similarly, HB-19/Btn binds and forms a stable complex with surface nucleolin in a dose-dependent manner in both types of cell ... || Previously, guanosine-rich phosphodiester oligonucleotides (referred to as GROs) and endostatin have been reported to exert antitumoral and antiangiogenic activity, respectively, through interaction with surface nucleolin [21], [41], [42]. […] At 20°C, GRO ... || (+ 1 further places)

tumor cells = details: cited from earlier work
Protocol: (§2) Previously, guanosine-rich phosphodiester oligonucleotides (referred to as GROs) and endostatin have been reported to exert antitumoral and antiangiogenic activity, respectively, through interaction with surface nucleolin [21], [41], [42]. […] At 20°C, GRO ...

nuclear nucleolin = details: cited from earlier work
Protocol: as §2

[7] = tested on: MDA-MB-231 tumor-cell xenografts; test: MDA-MB-231 xenograft in nude mice; format: in vivo, human; details: tamoxifen 10 mg/kg, peritumoral, 3 times/week, 6 weeks, n = 5
Protocol: as §1

With O=c1[nH]cc(F)c(=O)[nH]1 [5-FU, 5-fluouracil] the “inhibition of tumor growth” value [1] was 66%, the leucopenia ([2]; 5-FU 40 mg/kg, intraperitoneal) was “toxic causing a significant degree of leucopenia” and the “reduction in the number of lymphocytes” value ([2]; 5-FU 40 mg/kg, intraperitoneal) was 55%. The Eosinophils ([2]; HB-19 5 mg/kg or 5-FU 40 mg/kg i.p., mean ± SD, n = 10, untreated 0.01±0.02) was 0.05±0.04 ×10^3/µl, the Basophils ([2]; HB-19 5 mg/kg or 5-FU 40 mg/kg i.p., mean ± SD, n = 10, untreated 0.10±0.06) was 0.10±0.04 ×10^3/µl and the Monocytes ([2]; HB-19 5 mg/kg or 5-FU 40 mg/kg i.p., mean ± SD, n = 10, untreated 0.20±0.09) was 0.22±0.09 ×10^3/µl. The Neutrophils ([2]; HB-19 5 mg/kg or 5-FU 40 mg/kg i.p., mean ± SD, n = 10, untreated 0.89±0.39, 5-FU p<0.05) was 0.53±0.15 * ×10^3/µl, the Lymphocytes ([2]; HB-19 5 mg/kg or 5-FU 40 mg/kg i.p., mean ± SD, n = 10, untreated 1.84±0.78, 5-FU p<0.01) was 0.83±0.22 ** ×10^3/µl and the Leukocytes ([2]; HB-19 5 mg/kg or 5-FU 40 mg/kg i.p., mean ± SD, n = 10, untreated 3.05±1.29, 5-FU p<0.05) was 1.73±0.37 * ×10^3/µl. For the same compound, the Erythrocytes ([2]; HB-19 5 mg/kg or 5-FU 40 mg/kg i.p., mean ± SD, n = 10, untreated 8.73±0.26, 5-FU p<0.0001) was 7.60±0.30*** ×10^6/µl, the Platelets ([2]; HB-19 5 mg/kg or 5-FU 40 mg/kg i.p., mean ± SD, n = 10, untreated 1041±91) was 1042±59 ×10^3/µl and the “inhibition of tumor vascularization” value [3] was “significantly inhibited tumor vascularization”.

With “H2NLys-Lys-Lys-Gly-Pro-Lys-Glu-Lys-βAla-Lys(Btn)-βAlaCONH2 [HB-19/Btn, biotinylated HB-19 for recovery of surface nucleolin]” the “concentration of maximum binding to surface nucleolin” value (surface nucleolin [4]) was 8 to 12 µM and the “concentration of maximum binding to surface nucleolin” value (surface nucleolin [5]) was 8 to 12 µM.

In the case of endostatin, the internalization [6] is given as “binds nucleolin on the surface of endothelial cells before translocation to the nucleus”, the “heparan sulfate proteoglycan requirement of binding to surface nucleolin” value (nucleolin) is given as “endostatin but not HB-19 binding to surface nucleolin requires heparan sulfate proteoglycans” and the “direct effect on tumor cell growth” value (tumor cells) is given as “does not directly affect tumor cell growth”. The “phosphorylation of nuclear nucleolin” value (nuclear nucleolin) was “inhibits phosphorylation of nuclear nucleolin”.

In the case of CC/C(=C(\c1ccccc1)c1ccc(OCCN(C)C)cc1)c1ccccc1 [tamoxifen, reference compound], the “reduction of tumor mass” value [7] is reported as 80%.
